Experimental data from patent US4440904A, “Nonapeptide anti-secretory agents” (American Home Products Corporation, priority 1983, dated 1984).
Bridge positions count the residues as written; N and C are the ends. Square brackets hold non-standard residues; d marks the D form. Peptide text beside a SMILES is read from it.

How the values were obtained:
total acid output = assay: Gastric anti-secretory activity in pylorus-ligated rats; format: in vivo, rat; settings: male Sprague-Dawley rats, pyloric ligation, 2 milligram per kilogram subcutaneous, four-hour test period
Method: Male Charles River rats of Sprague-Dawley strain and 190 to 240 grams body weight are food deprived for 24 hours with water ad libitum until the test. Groups of ten rats each are assigned to either control or drug treatment. Pyloric ligation was performed under ether anesthesia through a midline laparotomy, and either control vehicle (0.25 methylcellulose) or drug in control vehicle was administered subcutaneously. The rats are sacrificed by CO2 asphyxiation four hours after pyloric ligation. The stomachs are removed and the gastric contents emptied into graduated centrifuge tubes. The gastric samples are centrifuged for 20 minutes and those obviously contaminated by food, blood or feces are discarded. The volume of gastric fluid is recorded and the acid concentration of 1.0 milliliter sample aliquots is measured by electrometric titration to pH 7.0 with 0.1 N NaOH. The calculated product of gastric volume (ml/4 hr) and acid concentration (mEq/L) estimates the total acid output (TAO, mEq/4 hr) over the four-hour test period.

growth hormone (GH) = assay: Growth hormone suppression in arginine-stimulated, Nembutal-anesthetized rats (GH by radioimmunoassay); format: in vivo, rat; settings: for GH: albino male rats, time 15 minutes, arginine stimulation, saline control 90 ± 14, *p <0.01
Method: The product of the preceding example illustrates the activity of the compounds of this invention for growth hormone suppression in the following standard procedure:
Albino male rats are administered Nembutal intraperitoneally at a dose of 50 milligrams per kilogram. Fifteen minutes later a subcutaneous injection of the compound of Example 2 or physiological saline (control) is administered. Ten minutes later 0.5 milliliters of arginine (300 milligrams per milliliter, pH 7.2) is injected into the heart. Five minutes after receipt of the arginine the rats are decapitated and blood is collected into trasylol-EDTA. An appropriate aliquot is assayed for growth hormone (GH) by radioimmunoassay.

Structure (SMILES)	decrease of total acid output (total acid output) [%]	GH (growth hormone (GH); dose 200 μg/kg subcutaneous) [ng/mL]	GH (growth hormone (GH); dose 1,000 μg/kg subcutaneous) [ng/mL]	growth hormone suppression potency compared with somatostatin (growth hormone (GH); rats, subcutaneous)
C[C@@H](O)[C@@H]1NC(=O)[C@H](CCCCN)NC(=O)[C@@H](Cc2c[nH]c3ccccc23)NC(=O)[C@H](Cc2ccccc2)NC(=O)[C@@H](NC(=O)[C@H](Cc2ccc(O)cc2)NC(=O)[C@@H](N)Cc2c[nH]cn2)CSSC[C@@H](C(=O)N[C@@H](Cc2ccccc2)C(=O)O)NC1=O [Example 2, L-Histidyl-L-tyrosyl-L-cysteinyl-L-phenylalanyl-D-tryptophyl-L-lysyl-L-threonyl-L-cysteinyl-L-phenylalanine cyclic (3-8) disulfide] (H-HYCF[dW]KTCF-OH; disulfide 3-8)	73	31 ± 10	41 ± 8	substantially equipotent with somatostatin
C[C@H](N)C(=O)NCC(=O)N[C@H]1CSSC[C@@H](C(=O)O)NC(=O)[C@H](CO)NC(=O)[C@H]([C@@H](C)O)NC(=O)[C@H](Cc2ccccc2)NC(=O)[C@H]([C@@H](C)O)NC(=O)[C@H](CCCCN)NC(=O)[C@H](Cc2c[nH]c3ccccc23)NC(=O)[C@H](Cc2ccccc2)NC(=O)[C@H](Cc2ccccc2)NC(=O)[C@H](CC(N)=O)NC(=O)[C@H](CCCCN)NC1=O [Somatostatin, reference compound]	–	34 ± 3	–	–
